{"source": "patent US20250313528A1", "about": "“NOVEL COMPOUND AND PHARMACEUTICAL COMPOSITION FOR PREVENTING OR TREATING PULMONARY FIBROSIS COMPRISING SAME AS ACTIVE INGREDIENT” (GIL MEDICAL CENTER, priority 2022, published 2025)", "test_system": "fibronectin and α-SMA", "assay": "Western blotting of fibrosis-related proteins in TGF-β1-induced DHLF-IPF cells", "type": "cell-based, human", "details": "TGF-β1 1 ng/ml, 10 μM, FIG. 4b", "experimental": "Specifically, to extract fibronectin and α-SMA proteins, the cells were washed once with cold PBS and then RIPA buffer (150 mM NaCl, 0.5% Triton X-100, 50 mM Tris-HCl, pH 7.4, 25 mM NaF, 20 mM EGTA), which was added with a protease inhibitor cocktail, was added thereto to lyse the cells. Then, the proteins were quantified using a BCA protein assay kit. All protein samples were subjected to electrophoresis at 10 μg on 8% to 10% PAGE gels and then transferred to 0.2 μm PVDF membranes (EMD Millipore, MA, USA). The membranes to which the protein was transferred were blocked with 5% BSA or 5% skim milk for 1 hour, and then primary antibodies were added thereto and incubated overnight at 4° C. The following day, the membranes were washed three times with PBST, and then HRP-conjugated secondary antibodies were added and reacted at room temperature for 1 hour. The PVDF membranes prepared through such procedures were smeared with ECL (Luminata™ Crescendo, EMD Millipore) and exposed to a fluorescence reader to confirm the level of protein expression.\nTo compare the changes in fibrosis-related protein expression by treating normal MRC-5 and diseased DHLF-IPF cell lines induced with pulmonary fibrosis by TGF-β1 with SFN and the two candidate compounds, Western blotting was performed.\nThe specific experimental methods are the same as in Example 2. TGF-β1 was treated at 1 ng/ml to induce fibrosis, and sulforaphane and the two compounds each were treated at a concentration of 10 μM."}
{"smiles": "CCOC(=O)C(CSC(=S)NCCCC[S+](C)[O-])NC(C)=O", "note": "(centres unmarked) [Compound 1]", "values": [{"measurement": "expression levels of fibronectin and α-SMA protein", "result": "significantly reducing the expression levels compared to sulforaphane"}]}
{"smiles": "C=CCOC(=O)C(CSC(=S)NCCCC[S+](C)[O-])NC(C)=O", "note": "(centres unmarked) [Compound 2]", "values": [{"measurement": "expression levels of fibronectin and α-SMA protein", "result": "significantly reducing the expression levels compared to sulforaphane"}]}
